According to PMC6842527, “Molecular cloning and metabolomic characterization of the 5-enolpyruvylshikimate-3-phosphate synthase gene from Baphicacanthus cusia” (BMC Plant Biology, 2019):
pKi: −log10 of the molar value.

Target: T1, BcEPSPS (5-enolpyruvylshikimate-3-phosphate synthase)
T1 construct: gene EPSPS; full-length coding region (518 aa) in pET-32a, His-tagged fusion BcEPSPS-His, expressed in E. coli BL21
Experiment: malachite green phosphate-release enzyme assay with purified recombinant BcEPSPS; Ki at […] S3P (IC50 […] also reported)
Type: biochemical, Baphicacanthus cusia

In the case of `O=C(O)CNCP(=O)(O)O` [glyphosate], the pKi was 7.34.
